Laboratory results as given in patent US10017459B2, “β-substituted β-amino acids and analogs as chemotherapeutic agents and uses thereof” (Quadriga Biosciences, Inc., priority 2015, dated 2018).

How the values were obtained:
U251 = test: cells; format: cell-based; details: Homo sapiens, U-251, read-out: IC50 (in vitro toxicity)
42MGBA = test: cells; format: cell-based; details: read-out: IC50 (in vitro toxicity)
G55 = test: cells; format: cell-based; details: read-out: IC50 (in vitro toxicity)
794 = test: cells; format: cell-based; details: read-out: IC50 (in vitro toxicity)
MCF7 = test: In vitro cytotoxicity, MCF7; format: cell-based; details: Homo sapiens, MCF7, read-out: IC50 (in vitro toxicity)
MV411 = test: cells; format: cell-based; details: Homo sapiens, MV4-11, read-out: IC50 (in vitro toxicity)
Raji = test: cells; format: cell-based; details: Homo sapiens, read-out: IC50 (in vitro toxicity)
PC3 [1] = test: cells; format: cell-based; details: Homo sapiens, PC-3, read-out: IC50 (in vitro toxicity)
KMS34 = test: cells; format: cell-based; details: KMS-34, read-out: IC50 (in vitro toxicity)
L363 = test: cells; format: cell-based; details: Homo sapiens, L-363, read-out: IC50 (in vitro toxicity)
AMO1 = test: cells; format: cell-based; details: Homo sapiens, AMO1, read-out: IC50 (in vitro toxicity)
MM1.S = test: cells; format: cell-based; details: Homo sapiens, read-out: IC50 (in vitro toxicity)
RPMI8266 = test: cells; format: cell-based; details: RPMI8266, read-out: IC50 (in vitro toxicity)
HS5 = test: cells; format: cell-based; details: HS5, read-out: IC50 (in vitro toxicity)
1334 = test: In vitro cytotoxicity, 1334; format: cell-based; details: read-out: IC50 (in vitro toxicity)
799E = test: In vitro cytotoxicity, 799E; format: cell-based; details: read-out: IC50 (in vitro toxicity)
Mia-PaCa2 = test: In vitro cytotoxicity, Mia-PaCa2; format: cell-based; details: Homo sapiens, MIA PaCa-2, read-out: IC50 (in vitro toxicity)
MDA-MB-231 = test: Breast cancer xenograft study, IP dosing; format: in vivo, mouse
Experimental: The efficacy of compounds provided by the present disclosure was evaluated on a triple negative breast cancer xenograft model—MDA-MB-231. The tumors were implanted into mice and the study was initiated after the volume of the tumors was 140 mm^3. The animals were IP dosed once a week or 3 times per week for 3 weeks with either vehicle or 1.25 mg/kg, 2.5 mg/kg, or 5 mg/kg of compound (5). The tumor volume, body weight, white blood cell count, and granulocyte count were determined during the study and 20 days after the final dose was administered. […] Tumor growth remained about 90% suppressed 20 days post-dosing following the 5 mg/kg treatment regimens.

PC3 [2] = test: Prostate cancer xenograft study, IP dosing; format: in vivo, mouse
Experimental: The efficacy of compounds provided by the present disclosure was evaluated on a prostate cancer xenograft model—PC3. PC3 tumors were implanted into mice and the study was initiated after the volume of the tumors was 130 mm^3. The animals were IP dosed once a week or 3 times per week for 3 weeks with either vehicle or 1.25 mg/kg, 2.5 mg/kg, or 5 mg/kg of compound (5). The tumor volume, body weight, white blood cell count, and granulocyte count were determined during the study and 10 days after the final dose was administered.

U251 MG = test: Orthotopic glioblastoma study (Example 84); format: in vivo, mouse; details: 5 mg/kg and 10 mg/kg IV once weekly for 4 weeks
Experimental: The efficacy of compounds provided by the present disclosure was evaluated using an orthotopic luciferase human glioblastoma model—U251 MG. Human glioblastoma cells were intracolonically injected (3×10^5 cells/3 μL) into athymic mice (female, 4-5 weeks-old, nu/un homozygous). Treatment began when the BLI reached a log-phase growth, at about 14 days after injection. Ten mice were assigned to each arm of the study. The mice were dosed with vehicle (IP, once weekly for 4 weeks), compound (5) (5 mg/kg, IV once weekly for 4 weeks), compound (5) (10 mg/kg, IV once weekly for 4 weeks), compound (40) (10 mg/kg, IV once weekly for 4 weeks), or compound (50) (20 mg/kg, IV single dose). The tumor volume was measured using bioluminescence imaging.

U266 = test: Orthotopic multiple myeloma study; details: mouse, in vivo
Experimental: The efficacy of compounds provided by the present disclosure was evaluated using an orthotopic luciferase human multiple myeloma model—U266. Human multiple myeloma cells were IV injected (1×10^6 cells) into NSG mice (female, 5-6 weeks-old, Jackson Labs). Treatment began when the BLI reached a log-phase growth, at about 12 to 14 days after injection. Nine mice were assigned to each arm of the study. The mice were dosed with vehicle (IP, once weekly for 3 weeks), bortezomid (BTZ, 0.8 mg/kg, IP twice weekly for 3 weeks), compound (5) (5 mg/kg, IV once weekly for 3 weeks), or compound (5) (10 mg/kg, IV once weekly for 3 weeks). The tumor volume was measured using bioluminescence imaging.

[3] = tested on: LLCPK cells conditionally expressing hLAT1
[4] = tested on: Human prostate cancer PC3 cells; details: mouse, in vivo
mouse melanoma cells = test: Mouse melanoma efficacy in syngeneic mice
[5] = tested on: human bone marrow cells (erythroid and myeloid progenitors); test: In vitro bone marrow toxicity, colony forming cell assays; details: 14 days in culture, methylcellulose media
[6] = during and following treatment, all dosing regimens

`Cc1ccc(N(CCCl)CCCl)cc1C[C@H](N)CC(=O)O` [Compound 5, (3S)-3-Amino-4-[5-[bis(2-chloroethyl)amino]-2-methyl-phenyl]butanoic Acid] showed an IC50 (U251) of less than 100 µM, an IC50 (42MGBA) of less than 100 µM and an IC50 (G55) of less than 100 µM. It also gave an IC50 794 of less than 100 µM, an IC50 (MCF7) of less than 100 µM and an IC50 (MV411) of less than 100 µM. The IC50 (Raji) was less than 100 µM, the IC50 (PC3 [1]) was less than 100 µM and the IC50 (KMS34) was greater than 100 µM. It also gave an IC50 (L363) greater than 100 µM, an IC50 (AMO1) greater than 100 µM and an IC50 (MM1.S) of less than 100 µM. It also gave an IC50 (RPMI8266) greater than 100 µM, an IC50 (HS5) greater than 100 µM and an IC50 1334 of less than 100 µM. The IC50 (799E) was less than 100 µM, the IC50 (Mia-PaCa2) was less than 100 µM and the tumor growth post-treatment (MDA-MB-231; 1.25 mg/kg and 2.5 mg/kg regimens, IP) was “demonstrated a dose response”. The “growth of the tumors” value (MDA-MB-231; 2.5 mg/kg and 5 mg/kg dosing regimens, IP once a week or 3 times per week for 3 weeks) was “nearly completely suppressed”, the “tumor growth suppression 20 days post-dosing” value (MDA-MB-231; 5 mg/kg treatment regimens, IP) was “about 90%” and the animal body weights (MDA-MB-231; all dosing regimens) was “increased”. For the same compound, the “white blood cell count and granulocyte count” value (MDA-MB-231; [6]) was “remained within normal range”, the tumor growth post-treatment (PC3 [2]; 1.25 mg/kg, 2.5 mg/kg, and 5 mg/kg regimens, IP) was “demonstrated a dose response” and the “growth of the tumors” value (PC3 [2]; 5 mg/kg dosing regimen, IP once a week or 3 times per week for 3 weeks) was “nearly completely suppressed”. For the same compound, the animal body weights (PC3 [2]; all dosing regimens) was “remained the same increased”, the “white blood cell count and granulocyte count” value (PC3 [2]; [6]) was “remained within normal range” and the “glioblastoma tumor growth (bioluminescence imaging)” value (U251 MG) was “dose-dependent suppression of glioblastoma tumor growth”. The “multiple myeloma tumor growth (bioluminescence imaging)” value (U266) was “dose-dependent suppression of multiple myeloma tumor growth”, the “IC50, S isomer compared with R isomer” value [3] was “significantly less than the IC50 of the R isomer” and the body weight [4] was “maintained weight”. The myelosuppression [4] was “not dectected”, the tumor growth suppression [4] was “dose-dependent tumor growth suppression” and the “tumor growth after end of dosing” value (mouse melanoma cells; after dosing ended at 12 days) was “Tumors began to grow”. For the same compound, the tumor growth (mouse melanoma cells; dosed daily for 12 days) was “suppressed tumor growth”, the “white blood cell count” value (mouse melanoma cells; during treatment) was “remained within the normal range” and the “toxicity to bone marrow progenitor cells (BFU-E, CFU-GM, Total CFC)” value [5] was “melphalan is more toxic to bone marrow progenitor cells than compound (5)”.
